According to patent publication US20160102317A1, “PLANTS HAVING INCREASED TOLERANCE TO HERBICIDES” (BASF SE, priority 2013, published 2016):

How the values were obtained:
[1] = target: T1, Arabidopsis HPPD (SEQ ID NO:53), wild-type (Arabidopsis thaliana, UniProt P93836); test: HPPD activity assay (HGA by HPLC), wild-type enzyme characterization; type: biochemical
T1 construct: His6 (N); made in house; host or cells: E. coli BL21 (DE3)
T1 sequence (P93836 1-445): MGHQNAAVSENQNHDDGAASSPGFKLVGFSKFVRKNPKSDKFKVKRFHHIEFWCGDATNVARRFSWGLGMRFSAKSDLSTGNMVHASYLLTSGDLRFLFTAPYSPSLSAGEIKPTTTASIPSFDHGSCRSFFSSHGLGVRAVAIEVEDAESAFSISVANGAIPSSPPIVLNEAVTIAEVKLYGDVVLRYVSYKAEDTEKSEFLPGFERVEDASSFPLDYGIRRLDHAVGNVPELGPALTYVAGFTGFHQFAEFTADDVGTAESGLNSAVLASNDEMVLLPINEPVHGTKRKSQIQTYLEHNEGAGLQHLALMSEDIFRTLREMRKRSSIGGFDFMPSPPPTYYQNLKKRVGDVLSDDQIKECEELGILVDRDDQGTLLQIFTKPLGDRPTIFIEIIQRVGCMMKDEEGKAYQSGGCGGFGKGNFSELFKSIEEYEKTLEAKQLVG
Protocol: (§1) HPPD produces homogentisic acid and CO2 from 4-hydroxyphenylpyruvate (4-HPP) and 02. The activity assay for HPPD is based on the analysis of homogentisic acid by reversed phase HPLC. The assay mixture can contain 150 mM potassium phosphate buffer pH 7.0, 50 mM L-ascorbic acid, 100 μM Catalase (Sigma-Aldrich), 1 μM FeSO4 and 0.2 units of purified HPPD enzyme in a total volume of 505 μl. 1 unit is defined as the amount of enzyme that is required to produce 1 nmol of HGA per minute at 20° C.
(§2) After a preincubation of 30 min the reaction is started by adding 4-HPP to a final concentration of 0.05 mM. The reaction is allowed to proceed for 45 min at room temperature. The reaction is stopped by the addition of 50 μl of 4.5 M phosphoric acid. The sample is filtered using a […] pore size PVDF filtration device.
(§3) 5 μl of the cleared sample is analyzed on an UPLC HSS T3 column (particle size 1.8 μm, dimensions 2.1×50 mm; Waters) by isocratic elution using 90% 20 mM NaH2PO4 pH 2.2, 10% methanol (v/v).
(§4) HGA is detected electrochemically at 750 mV (mode: DC; polarity: positive) and quantified by integrating peak areas (Empower software; Waters).
Inhibitors are dissolved in DMSO (dimethylsulfoxide) to a concentration of 0.5 mM. From this stock solution serial five-fold dilutions are prepared in DMSO, which are used in the assay. The respective inhibitor solution accounts for 1% of the assay volume. […] Activities are normalized by setting the uninhibited enzyme activity to 100%. IC50 values are calculated using non-linear regression.
Using methods which are described in the above examples or well known in the art, purified, recombinant wild-type HPPD enzymes are characterized with respect to their kinetic properties and sensitivity towards HPPD inhibiting herbicides. Apparent michaelis constants (Km) and maximal reaction velocities (Vmax) are calculated by non-linear regression with the software GraphPad Prism 5 (GraphPad Software, La Jolla, USA) using a substrate inhibition model. […] Weighted means (by standard error) of Km and IC50 values are calculated from at least three independent experiments.
Field performance of the HPPD enzyme, which is used as a herbicide tolerance trait, may depend not only on its lack of sensitivity towards HPPD inhibiting herbicides but also on its activity. To assess the potential performance of a herbicide tolerance trait a tolerance index (TI) is calculated using the following formula: […]
Easy comparison and ranking of each trait is enabled by normalizing tolerance indexes on Arabidopsis wild-type HPPD.

HPPD Seq ID 69 = test: HPPD activity assay, tolerance index; type: biochemical, Zea mays; details: Table 12, normalized to reference SEQ ID NO:53
Protocol: as §1, §2, §3, §4
(§5) Inhibitors are dissolved in DMSO (dimethylsulfoxide) to a concentration of 0.5 mM. From this stock solution serial five-fold dilutions are prepared in DMSO, which are used in the assay. […] IC50 values are calculated using non-linear regression. […]

HPPD Seq ID 67 = test: HPPD activity assay, tolerance index; type: biochemical, Zea mays; details: Table 12, normalized to reference SEQ ID NO:53
Protocol: as §1, §2, §3, §4, §5

SMILES: COc1no[nH]/c1=N/C(=O)c1ccc2c(c1Cl)S(=O)(=O)CCC2(C)C [Inhibitor 1, (NE)-8-chloro-N-(4-methoxy-1,2,5-oxadiazol-3-ylidene)-4,4-dimethyl-1,1-dioxo-2,3-dihydrothiochromene-7-carboxamide]
- Ki [1]: 19 nM
- TI Inhibitor 1 (normalized tolerance index) ([1]; Table 12, Arabidopsis HPPD, normalized to reference SEQ ID NO:53): 1
- TI Inhibitor 1 (normalized tolerance index) ([1]; Table 15, Arabidopsis HPPD variant Wild-type): 1
- TI Inhibitor 1 (normalized tolerance index) (HPPD Seq ID 69): 13.2
- TI Inhibitor 1 (normalized tolerance index) (HPPD Seq ID 67): 107.3
